Measured values taken from patent publication US20240024372A1, “COMPOUNDS AND METHODS TO TREAT CYSTIC FIBROSIS” (City of Hope, priority 2020, published 2024).

Tested on: HuBEC cells
Test: Uptake of BODIPY-labeled exosomes by HuBEC (light microscopy)
Type: cell-based, human
Settings: HuBEC pre-treated with 200 μM Genistein, 37° C., 30 minutes, then BODIPY-labeled MSC-derived CFZF-VPR exosomes 3 h
Procedure: FIGS. 7A-7B show exosome uptake inhibition. FIG. 7A: To study the pathway of exosome uptake, HuBEC cells were pre-treated with 200 μM of Genistein and incubated at 37° C. for 30 minutes before exosome addition, and then incubated with BODIPY-labeled exosomes at 37° C. for 3 h. FIG. 7B: Uptake was quantified by determining the percentage of BODIPY-fluorescence intensity.
Exosome labeling. Exosomal membrane was labeled with BODIPY TR ceramide, according to the manufacturer's protocol (Molecular Probes/Invitrogen Life Technologies, Carlsbad, California, USA). Briefly, 5e+10 exosomes were stained with 10 μmol/L BODIPY TR ceramide. Excess fluorescent dye was removed by using Exosome Spin Columns (Life Technologies, Carlsbad, California, USA). BODIPY-labeled exosomes were dropped on 10e+3 cells and incubated in exosome depleted medium at 37° C. and 5% CO2. Bodipy-labeled exosomes uptake was evaluated by light microscopy.
Light microscopy and imaging. Cells were cultivated fixed with BD cytofix/Cytoperm™ fixation/permeabilization Kit (Cat. No. 554715 BD bioscience, Franklin Lakes, NJ, USA) at room temperature for 20 minutes and then stained with fluorescent 488-Phalloidin (green) for actin using the manufacturer's recommendations (Molecular Probes/Invitrogen Life Technologies). Fluorescence images were collected on Zeiss LSM-700 confocal microscope. […]

SMILES: O=c1c(-c2ccc(O)cc2)coc2cc(O)cc(O)c12 [genistein]
- inhibition of exosome uptake (BODIPY-fluorescence intensity): inhibition of the MSC derived CFZF-VPR exosome uptake
